Each structure is given as a SMILES string.

T1 sequence (Q96LB2 whole entry): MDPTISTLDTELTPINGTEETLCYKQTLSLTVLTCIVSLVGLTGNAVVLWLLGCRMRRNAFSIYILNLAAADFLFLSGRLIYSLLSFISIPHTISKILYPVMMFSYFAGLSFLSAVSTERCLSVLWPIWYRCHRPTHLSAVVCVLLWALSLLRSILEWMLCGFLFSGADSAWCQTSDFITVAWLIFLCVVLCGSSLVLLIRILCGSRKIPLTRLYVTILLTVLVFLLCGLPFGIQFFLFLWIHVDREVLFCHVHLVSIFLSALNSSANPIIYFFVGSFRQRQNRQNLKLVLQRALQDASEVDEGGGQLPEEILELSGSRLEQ

The first experiment addresses T1, Mas-related G-protein coupled receptor member X1 (Homo sapiens, UniProt Q96LB2). Nature of the experiment: Positive allosteric modulator activity at human MRGPRX1 transfected in HEK293 cells in presence of BAM8-22 by Fulo4AM dye based FLIPR assay. The format is cell-based.
Conditions: not given
For orientation: EC50 means the concentration needed to bring the measured effect to its halfway point. On to `Cc1cccc(Oc2ncnc3sc(C)c(C)c23)c1`, for which the EC50 was 25000 nM.
`Cc1sc2ncnc(Oc3ccccc3C(F)(F)F)c2c1C`: the EC50 stood at 520 nM.
Still for that read-out and setting: under `Cc1sc2ncnc(Oc3ccc(C(F)(F)F)cc3)c2c1C` stands > 100000 nM; under `Cc1sc2ncnc(Oc3cccc(C(F)(F)F)c3)c2c1C`, > 100000 nM.
On the same count and under the same terms, under `Cc1ccccc1Oc1ncnc2sc(C)c(C)c12` stands 480 nM.
The same measure, in the same setting: under `Cc1sc2ncnc(Oc3ccc(F)cc3)c2c1C` stands 1100 nM; under `Cc1ccc(Oc2ncnc3sc(C)c(C)c23)cc1`, 2700 nM.
Turning to `Fc1ccccc1Oc1ncnc2sccc12`, the half-maximal effective concentration (EC50) came out at 4200 nM.
`Cc1sc2ncnc(Oc3ccccc3)c2c1C`: the EC50 worked out at 1600 nM.
As to `Cc1ccccc1Oc1ncnc2sccc12`, the EC50 came out at 14500 nM.

A further experiment concerns the target T1, Mas-related G-protein coupled receptor member X1. The experiment can be described thus: Positive allosteric modulator activity at human MRGPRX1 transfected in HEK293 cells assessed as maximal efficacy in presence of BAM8-22 by Fulo4AM dye based FLIPR assay relative to control. As to conditions: filed as positive allosteric modulator. The format is cell-based.
By Emax is commonly meant the greatest response seen or fitted, relative to the assay's reference. Take `Cc1cccc(Oc2ncnc3sc(C)c(C)c23)c1`: the Emax stood at 40%.
Consider `Cc1sc2ncnc(Oc3ccccc3C(F)(F)F)c2c1C`, for which the Emax was determined as 95%.
Same read-out and setting: the result for `Cc1ccccc1Oc1ncnc2sc(C)c(C)c12` reads 118%; that for `Cc1sc2ncnc(Oc3ccc(F)cc3)c2c1C`, 83%; that for `Cc1ccc(Oc2ncnc3sc(C)c(C)c23)cc1`, 88%.
On the same count and under the same terms, under `Fc1ccccc1Oc1ncnc2sccc12` stands 95%; under `Cc1sc2ncnc(Oc3ccccc3)c2c1C`, 89%; under `Cc1ccccc1Oc1ncnc2sccc12`, 88%.

These data come from ChEMBL document CHEMBL5038664, “Thieno[2,3-d]pyrimidine-Based Positive Allosteric Modulators of Human Mas-Related G Protein-Coupled Receptor X1 (MRGPRX1)” (J Med Chem, 2022).
